Laboratory results as given in patent publication US20060264388A1, “Method for treating liver cancer by intrahepatic administration of nemorubicin” (priority 2003, published 2006).

Assays:
[1] = test system: patients with liver cancer; test: Hematological toxicity - Neutrophils, worst CTC Grade by cycle, intrahepatic artery nemorubicin q8wk vs q6wk; assay type: in vivo, human
Method: (§1) The objective of the study was to shorten the time interval between treatment administrations from every 8 weeks (q8wk) of the protocol as reported in WO 00/15203 to every 6 weeks (q6wk). This was done in the attempt of improving the therapeutic potential of nemorubicin treatment through an increase of the dose intensity of the therapy, simultaneously safeguarding patient safety.
(§2) Overall, 13 patients were treated with the q8wk schedule (total 25 cycles administered; doses ranged from 200 to 800 mcg/m^2), and 11 patients were treated with the q6wk schedule (total 32 cycles administered; doses were 200 and 600 mcg/m^2).
(§3) The NCI-Common Tosicity Criteria grading system (CTC Grade), Version 2.0, was used to report toxicities.
(§4) A slight cumulative effect (i.e., increase in frequency but not in severity) was observed after repeated cycles for leucopenia and neutropenia (Tables 2 and 3), mainly with the q8wk schedule.

[2] = test system: patients with liver cancer; test: Hematological toxicity - Platelets, worst CTC Grade by cycle, intrahepatic artery nemorubicin q8wk vs q6wk; assay type: in vivo, human
Method: as §1, §2, §3, §4

[3] = 200 mcg/m^2 q6wk, All cycles, 11 evaluable cycles
[4] = 200 mcg/m^2 q6wk, Cycle 1, 5 evaluable cycles
[5] = 200 mcg/m^2 q6wk, Cycles > 1, 6 evaluable cycles
[6] = 200 mcg/m^2 q8wk, All cycles, 5 evaluable cycles
[7] = 200 mcg/m^2 q8wk, Cycle 1, 3 evaluable cycles
[8] = 200 mcg/m^2 q8wk, Cycles > 1, 2 evaluable cycles
[9] = 400 mcg/m^2 q8wk, All cycles, 4 evaluable cycles
[10] = 400 mcg/m^2 q8wk, Cycle 1, 3 evaluable cycles
[11] = 600 mcg/m^2 q6wk, All cycles, 18 evaluable cycles
[12] = 600 mcg/m^2 q6wk, Cycle 1, 6 evaluable cycles
[13] = 600 mcg/m^2 q6wk, Cycles > 1, 12 evaluable cycles
[14] = 600 mcg/m^2 q8wk, All cycles, 8 evaluable cycles
[15] = 600 mcg/m^2 q8wk, Cycles > 1, 4 evaluable cycles
[16] = 800 mcg/m^2 q8wk, All cycles, 4 evaluable cycles
[17] = 800 mcg/m^2 q8wk, Cycle 1, 3 evaluable cycles
[18] = 600 mcg/m^2 q8wk, Cycle 1, 4 evaluable cycles
[19] = 800 mcg/m^2 q8wk, All cycles, 3 evaluable cycles

Which “Neutrophils, worst CTC Grade by cycle: All Grades (%)” value (“Neutrophils … All Grades (%)” for short) [1, 3] does the source give for `COc1cccc2c1C(=O)c1c(O)c3c(c(O)c1C2=O)C[C@@](O)(C(=O)CO)C[C@@H]3O[C@H]1C[C@H](N2CCO[C@H](OC)C2)[C@H](O)[C@H](C)O1.Cl` [nemorubicin, 3′desamino-3′[2(S)methoxy-4-morpholinyl]doxorubicin-hydrochloride] here?
Its value is 4 (36%) (%).

And the “Neutrophils, worst CTC Grade by cycle: Grade 1-2 (%)” value (shortened to “Neutrophils … Grade 1-2 (%)”) [1, 3]?
The value was 4 (36%) (%).

And the “Neutrophils … All Grades (%)” value [1, 4]?
The value was 2 (40%) (%).

What about the “Neutrophils … Grade 1-2 (%)” value [1, 4] of the same molecule?
Its value is 2 (40%) (%).

What about the “Neutrophils … All Grades (%)” value [1, 5] of the same molecule?
Its value is 2 (33%) (%).

And the “Neutrophils … Grade 1-2 (%)” value [1, 5]?
Its value is 2 (33%) (%).

And the “Neutrophils … All Grades (%)” value [1, 6]?
Its value is 3 (60%) (%).

What about the “Neutrophils … Grade 1-2 (%)” value [1, 6] of the same molecule?
The value was 3 (60%) (%).

What about the “Neutrophils … All Grades (%)” value [1, 7] of the same molecule?
Its value is 1 (33%) (%).

What about the “Neutrophils … Grade 1-2 (%)” value [1, 7] of the same molecule?
The value was 1 (33%) (%).

What about the “Neutrophils … All Grades (%)” value [1, 8] of the same molecule?
Its value is 2 (100%) (%).

What about the “Neutrophils … Grade 1-2 (%)” value [1, 8] of the same molecule?
The value was 2 (100%) (%).

And the “Neutrophils … All Grades (%)” value [1, 9]?
The value was 1 (25%) (%).

And the “Neutrophils … Grade 1-2 (%)” value [1, 9]?
Its value is 1 (25%) (%).

And the “Neutrophils … All Grades (%)” value [1, 10]?
The value was 1 (33%) (%).

What about the “Neutrophils … Grade 1-2 (%)” value [1, 10] of the same molecule?
Its value is 1 (33%) (%).

And the “Neutrophils … All Grades (%)” value [1, 11]?
Its value is 3 (17%) (%).

And the “Neutrophils … Grade 1-2 (%)” value [1, 11]?
Its value is 3 (17%) (%).

And the “Neutrophils … All Grades (%)” value [1, 12]?
Its value is 1 (17%) (%).

What about the “Neutrophils … Grade 1-2 (%)” value [1, 12] of the same molecule?
Its value is 1 (17%) (%).

What about the “Neutrophils … All Grades (%)” value [1, 13] of the same molecule?
The value was 2 (17%) (%).

What about the “Neutrophils … Grade 1-2 (%)” value [1, 13] of the same molecule?
The value was 2 (17%) (%).

What about the “Neutrophils … All Grades (%)” value [1, 14] of the same molecule?
The value was 2 (25%) (%).

What about the “Neutrophils … Grade 1-2 (%)” value [1, 14] of the same molecule?
Its value is 2 (25%) (%).

And the “Neutrophils … All Grades (%)” value [1, 15]?
The value was 2 (50%) (%).

And the “Neutrophils … Grade 1-2 (%)” value [1, 15]?
Its value is 2 (50%) (%).

And the “Neutrophils … All Grades (%)” value [1, 16]?
Its value is 1 (25%) (%).

And the “Neutrophils … Grade 1-2 (%)” value [1, 16]?
Its value is 1 (25%) (%).

And the “Neutrophils … All Grades (%)” value [1, 17]?
The value was 1 (33%) (%).

And the “Neutrophils … Grade 1-2 (%)” value [1, 17]?
The value was 1 (33%) (%).

And the “Platelets, worst CTC Grade by cycle: All Grades (%)” value (shortened to “Platelets … All Grades (%)”) [2, 3]?
The value was 10 (91%) (%).

What about the “Platelets, worst CTC Grade by cycle: Grade 1-2 (%)” value (“Platelets … Grade 1-2 (%)” below) [2, 3] of the same molecule?
Its value is 10 (91%) (%).

And the “Platelets … All Grades (%)” value [2, 4]?
Its value is 4 (80%) (%).

What about the “Platelets … Grade 1-2 (%)” value [2, 4] of the same molecule?
Its value is 4 (80%) (%).

And the “Platelets … All Grades (%)” value [2, 5]?
Its value is 6 (100%) (%).

What about the “Platelets … Grade 1-2 (%)” value [2, 5] of the same molecule?
Its value is 6 (100%) (%).

What about the “Platelets … All Grades (%)” value [2, 6] of the same molecule?
The value was 5 (100%) (%).

What about the “Platelets … Grade 1-2 (%)” value [2, 6] of the same molecule?
Its value is 5 (100%) (%).

What about the “Platelets … All Grades (%)” value [2, 7] of the same molecule?
The value was 3 (100%) (%).

And the “Platelets … Grade 1-2 (%)” value [2, 7]?
The value was 3 (100%) (%).

And the “Platelets … All Grades (%)” value [2, 8]?
The value was 2 (100%) (%).

And the “Platelets … Grade 1-2 (%)” value [2, 8]?
Its value is 2 (100%) (%).

What about the “Platelets … All Grades (%)” value [2, 9] of the same molecule?
The value was 1 (25%) (%).

And the “Platelets … Grade 1-2 (%)” value [2, 9]?
The value was 1 (25%) (%).

What about the “Platelets … All Grades (%)” value [2, 10] of the same molecule?
Its value is 1 (33%) (%).

And the “Platelets … Grade 1-2 (%)” value [2, 10]?
Its value is 1 (33%) (%).

What about the “Platelets … All Grades (%)” value [2, 11] of the same molecule?
Its value is 17 (94%) (%).

And the “Platelets … Grade 1-2 (%)” value [2, 11]?
Its value is 17 (94%) (%).

What about the “Platelets … All Grades (%)” value [2, 12] of the same molecule?
The value was 6 (100%) (%).

And the “Platelets … Grade 1-2 (%)” value [2, 12]?
Its value is 6 (100%) (%).

And the “Platelets … All Grades (%)” value [2, 13]?
Its value is 11 (92%) (%).

What about the “Platelets … Grade 1-2 (%)” value [2, 13] of the same molecule?
The value was 11 (92%) (%).

What about the “Platelets … All Grades (%)” value [2, 14] of the same molecule?
The value was 8 (100%) (%).

What about the “Platelets … Grade 1-2 (%)” value [2, 14] of the same molecule?
The value was 7 (87%) (%).

And the “Platelets, worst CTC Grade by cycle: Grade 3 (%)” value [2, 14]?
Its value is 1 (12%) (%).

What about the “Platelets … All Grades (%)” value [2, 18] of the same molecule?
Its value is 4 (100%) (%).

What about the “Platelets … Grade 1-2 (%)” value [2, 18] of the same molecule?
The value was 4 (100%) (%).

And the “Platelets … All Grades (%)” value [2, 15]?
The value was 4 (100%) (%).

What about the “Platelets … Grade 1-2 (%)” value [2, 15] of the same molecule?
The value was 3 (75%) (%).

What about the “Platelets, worst CTC Grade by cycle: Grade 3 (%)” value [2, 15] of the same molecule?
The value was 1 (25%) (%).

What about the “Platelets … All Grades (%)” value [2, 19] of the same molecule?
Its value is 2 (67%) (%).

What about the “Platelets … Grade 1-2 (%)” value [2, 19] of the same molecule?
The value was 2 (67%) (%).

And the “Platelets … All Grades (%)” value [2, 17]?
Its value is 2 (67%) (%).

What about the “Platelets … Grade 1-2 (%)” value [2, 17] of the same molecule?
Its value is 2 (67%) (%).

What about the “thrombocytopenia, maximum severity (CTC Grade)” value ([2]; only one patient treated at 600 mcg/m^2 q8wk after repeated cycles) of the same molecule?
The value was “Grade 3”.
